Read-outs that look alike come from different tables or passages of the source.
Key:
[1] = tested on: H2O2 level in Colo357 cell line; test: Measurement of H2O2 level in Colo357 cell line (FIG. 8A); type: cell-based; conditions: CPPD 20 μmol·L−1, Doxo 25 μmol·L−1
Procedure: Intracellular H2O2 production in live cells was measured using Total ROS/superoxide detection kit (Enzo life science), following the manufacturer's instructions. The assay uses specific H2O2/RNS probes that upon reaction with H2O2 and RNS species are oxidized rapidly to highly fluorescent compounds. Fluorescence intensity is proportional to the total H2O2/RNS levels within the sample. […] The day before the analysis, cells were seeded in 96-well black/clear bottom plates at a density of 2×10^4 in culture media according to cell suppliers instructions, supplemented with FBS (10% v/v), 10 units of penicillin/ml and 100 mg of streptomycin. Cells were kept at 37° C. in a humid atmosphere of 95% air: 5% CO2 overnight. […] After the incubation period, wells were loaded with 100 μL of H2O2 Detection Solution, containing the respective treatment agent or controls and incubated for 60 min at 37° C. in the dark. Several wells were left without cells for the background fluorescence control measurements. Plates were read using Appliskan fluorescence microplate reader (Thermo Scientific) (ex=560 nm, Em=600). Data are expressed as the change in arbitrary fluorescence units produced from equal amount of cells and normalized to total protein input.

Colo357 = test: Viability of Colo357 cells under combination treatment (FIG. 8B); type: cell-based; conditions: Colo357 (high GSH), combination treatment with S-methyl 4-(dimethylamino)-4-methylpent-2-ynethioate
Hop62 = test: Cell viability assay (Rezasurin), 96 well format; type: cell-based; conditions: Homo sapiens, HOP-62, 48 h, DIMATE alone or with PCN 40 μM, read-out: abs.IC50
HCC827 = test: Cell viability assay (Rezasurin), 96 well format; type: cell-based; conditions: Homo sapiens, 48 h, DIMATE alone or with PCN 40 μM, read-out: abs.IC50
HL-60, NT2/D1 = test: Quantification of MDA and HNE adducts by ELISA in sensitive cells; type: cell-based, human; conditions: 5 or 10 μmol·L^−1, 24 hours
Procedure: (§1) Quantitative Determination of FINE-Protein and MDA/Protein Adducts by ELISA
(§2) The formation of HNE-adducts and MDA-adducts was quantified with the Oxiselect HNE Adduct Elisa kit (Cell Biolabs, San Diego, Calif.) and the OxiSelect MDA Adduct ELISA Kit (Cell Biolabs), respectively. Briefly, after a treatment with S-methyl 4-(dimethylamino)-4-methylpent-2-ynethioate during 24 hours, cells were lysed by sonication in reducing SDS Sample Buffer. Homogenates were diluted to 10 μg protein/mL and adsorbed in 96-well protein binding plates by incubation at 37° C. for at least 2 hours. Wells were washed twice with PBS and incubated for an additional 2 hours at room temperature on an orbital shaker. Following three washes in PBS, 100 μL of anti-HNE antibody or anti-MDA antibody were added to the wells and incubated for 1 hour at room temperature. Subsequently, goat anti-rabbit secondary antibody-HRP conjugate (diluted 1/1000 with the assay diluent) was added and incubation continued for 1 hour. Wells were washed five times in PBS and HRP-substrate was added. Reaction was stopped with an acidic solution, and absorbance read on a microplate reader at 450 nm. The level of HNE-adducts and of MDA-adducts was determined by comparison with a standard curve prepared from HNE-BSA and MDA-BSA standards supplied by the manufacturer.

THP-1 = test: Cell viability assay (Rezasurin), 96 well format; type: cell-based; conditions: Homo sapiens, 48 h
MSC = test: Quantification of MDA and HNE adducts by ELISA in resistant cells; type: cell-based; conditions: 5 or 10 μmol·L^−1, 24 hours
Procedure: as §1, §2

[2] = cited from earlier work
cancer cells = test: Cell viability after exposure to pyocianin; type: cell-based, human; conditions: pyocianin 40 μM
Procedure: Cells were seeded into 96-well cell culture plates at concentrations required to ensure approximately 80% confluence in control (untreated cells) at the end of experiment (0.5×10^4-5×10^4 cell/well). The sensitivity towards S-methyl 4-(dimethylamino)-4-methylpent-2-ynethioate was determined using different concentrations of the drug (from 0.01 to 100 μM). After 48 hours, the growth-inhibitory effect of the drug was analyzed using Rezasurin, according to manufactures instruction. To ensure good data quality and to minimize impact of pipetting errors, each particular drug concentration was assessed based on mean fluorescence intensity from 8 separate wells. The drug response was quantified by the half maximal inhibitory concentration (IC50) for each particular cell line, and determined by non-linear regression analysis of log-dose/response curves. Cut-off value for resistance to S-methyl 4-(dimethylamino)-4-methylpent-2-ynethioate was determined statistically (>2 S.D. above the IC50 geometric mean). The in-vitro threshold value for hypersensitivity to the drug has been defined as <IC50 geometric mean.
In a different experiment, cells showing resistance to S-methyl 4-(dimethylamino)-4-methylpent-2-ynethioate (THP-1, HCC827, and Hop62) were challenged with H2O2 inducer. […]

H2O2 levels = test: Measurement of H2O2 production after cell exposure to pyocianin; type: cell-based, human; conditions: pyocianin 40 μM
Procedure: Measurement of H2O2 Production
Intracellular H2O2 production in live cells was measured using Total ROS/superoxide detection kit (Enzo life science), following the manufacturer's instructions. The assay uses specific H2O2/RNS probes that upon reaction with H2O2 and RNS species are oxidized rapidly to highly fluorescent compounds. Fluorescence intensity is proportional to the total H2O2/RNS levels within the sample. […] The day before the analysis, cells were seeded in 96-well black/clear bottom plates at a density of 2×10^4 in culture media according to cell suppliers instructions, supplemented with FBS (10% v/v), 10 units of penicillin/ml and 100 […]. Cells were kept at 37° C. in a humid atmosphere of 95% air: 5% CO2 overnight. On the day of the analysis, cells media was replaced by 100 μL of phenol free-media supplemented as above, without any treatment, with S-methyl 4-(dimethylamino)-4-methylpent-2-ynethioate for 6 hours, vehicle HEPES for 6 hours, or with the different control agents PCN and NAC for 20 min. […] Several wells were left without cells for the background fluorescence control measurements. Plates were read using Appliskan fluorescence microplate reader (Thermo Scientific) (ex=560 nm, Em=600). Data are expressed as the change in arbitrary fluorescence units produced from equal amount of cells and normalized to total protein input.

N.N.[Cl][Pt][Cl] [CPPD, Cisplatin]
increase of H2O2 level [1]: 200%
effect on viability (Colo357): no effect

CSC(=O)C#CC(C)(C)N(C)C [DIMATE, S-methyl 4-(dimethylamino)-4-methylpent-2-ynethioate]
IC50 (Hop62): 39 µM
IC50 (HCC827): 25 µM
HNE-adducts level (HL-60, NT2/D1): > 1 μg per μg of total protein
MDA-adducts level (HL-60, NT2/D1): above 100 ng per μg of total protein
IC50 (THP-1; THP-1, DIMATE alone or with PCN 40 μM, read-out: abs.IC50): 46 µM
IC50 (THP-1; THP-1 resistant cells, DIMATE alone or with H2O2 inducer at fixed concentration (2-ME 100 μM, ATO 1 μM, Daunorubicine 40 nM, Doxorubicine 20 nM, Etoposide 500 nM, Mitoxanthrone 50 nM, Parthenolide 100 nM, Piperlongumine 2 μM), read-out: IC50): 46 µM
HNE-adducts level (MSC): < 1 μg per μg of total protein
MDA-adducts level (MSC): < 100 ng per μg of total protein

COc1cccc2c1C(=O)c1c(O)c3c(c(O)c1C2=O)C[C@@](O)(C(=O)CO)C[C@@H]3O[C@H]1C[C@H](N)[C@H](O)[C@H](C)O1 [Doxo, Doxorubicin]
increase of H2O2 level [1]: 10 000%
effect on viability (Colo357): no effect

CC(=O)N[C@@H](CS)C(=O)O [NAC, N-acetyl-L-cysteine]
rate constant, scavenging of hydroxy radicals ([2]; hydroxy radicals): 1.36×10^10 M^−1,s^−1
reaction with superoxide anion ([2]; superoxide anion): no reaction

Cn1c2cccc(=O)c-2nc2ccccc21 [pyocianin, pyocyanin]
effect on cell viability (cancer cells): without affecting cell viability
increase in H2O2 levels (H2O2 levels): two-fold increase
